Read-outs that look alike come from different tables or passages of the source.
Assays:
[1] = system: antioxidant response element; conditions: cited from earlier work
[2] = system: Phaeodactylum tricornutum; test: Microplate assay: growth (absorbance 680 nm) and intracellular lipids (Nile Red fluorescence); assay type: cell-based
Protocol: (§1) Stock cultures were aerated by stirring with bubbling air (homemade manifold with Petco air pump, 2-4% CO2) or by orbital shaking (Thermo Scientific MAXQ 2000) at a constant speed of 150 rpm at 22±3° C. with a 16:8 hour light/dark cycle. Stocks were kept at stationary phase for use. Algae were prepared as dictated by culture center.
(§2) Compounds were selected based on reported biological activity in non-microalgae organisms. To ensure that compounds retained their quality, they were stored under advised conditions after purchasing from the manufacturer. Solutions of all assay compounds were prepared as 10 mM stock solutions by dissolving in DMSO in 2-dram amber vials and then stored in darkness −20° C. 96-well PCR plates were used to create a stock plate layout that was then transferred to the algae microplates. A plate map was used to distribute each compound to a well based on molecule name, collection number, and CAS number. For 20 μM and 200 nM assay plates, 10 mM compound stock in DMSO was diluted into plate maps of 5 mM and 50 μM assay stocks, respectively.
(§3) All materials for assay experiments were autoclaved before each use to maintain axenic algae cultures. Algae species were checked for homogeneity using a TS-100 light microscope (Nikon, Japan). […] Diluted stock solutions were made immediately prior to use for consistency and optimal plate growth. Cell density was measured on a Thermo Scientific Genesys 10S Vis Spectrophotometer (ThermoFisher, San Jose), using a 1 mL cuvette at 680 nm.
(§4) Plates were originally run in triplicate, before replicates were increased to quadruplicate, along with a separate control plate to compare growth. Due to extensive evaporation in exterior wells over time, our unique algae plate layout was designed to use the 60 interior wells out of 96 wells for the experiment. The 36 outer wells were filled with Millipore water and media to prevent evaporation and edge effects in the inner algae wells, as well as serve as blanks. The 60 wells with algae contained a total volume of 251 μL (100 μL of media+DMSO compound stock +150 μL dilute algae stock). For 20 μM and 200 nM assay plates, 10 mM compound stock in DMSO is diluted into plate maps of 5 mM and 50 μM assay stocks, respectively. […] Plates were parafilmed during growth to limit the amount of evaporation that can occur. Plates were numbered, and numerically ordered to ensure they got the same shaker space.
(§5) The shakers are kept at a constant shaking of 150 rpm. Ambient temperature is 22±3° C.

Nannochloris sp. = test: as above; assay type: cell-based; conditions: for Absorbance (percent increase) / Nile Red percent increase: 200 nM, initial microplate screen, relative to control; for Nile Red Fluorescence % Increase: Nannochloris sp., initial screening, p<0.05
Nannochloropsis salina [3] = system: Nannochloropsis salina
CDK6 = CDK6 (Homo sapiens, UniProt Q00534); conditions: cited from earlier work
CDK6, sequence (Q00534 whole entry, looked up): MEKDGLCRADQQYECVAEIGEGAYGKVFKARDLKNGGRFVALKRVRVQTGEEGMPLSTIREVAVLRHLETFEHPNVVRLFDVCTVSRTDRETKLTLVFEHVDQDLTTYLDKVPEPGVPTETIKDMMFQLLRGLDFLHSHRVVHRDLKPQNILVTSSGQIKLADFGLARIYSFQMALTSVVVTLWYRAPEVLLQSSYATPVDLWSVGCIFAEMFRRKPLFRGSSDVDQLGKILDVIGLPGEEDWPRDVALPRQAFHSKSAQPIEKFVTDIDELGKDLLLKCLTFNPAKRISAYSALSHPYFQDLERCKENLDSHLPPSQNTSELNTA

Nannochloropsis salina [4] = test: 500 mL batch culture: growth, dry weight and lipid extract (gravimetric); assay type: cell-based; conditions: 4 nM
Protocol: Batch cultures were grown in 500 mL Pyrex media bottles with stirring and air bubbling (homemade manifold with Petco air pump, 2-4% CO2). Incoming air was sterile filtered by Polyvent 4 disposable filters (Whatman, Kent, UK). […] To minimize bacterial contamination, all equipment and materials were autoclaved and media was added to flask in a Purifier Vertical Clean bench (Labconco, Kansas City, Mo.). […] The amount of DMSO is standardized for all experiments to 0.4%.
For all compound cultures, the 2 mL DMSO stock solution was added to media (without algae) first and mixed well. Control cultures were grown without DMSO. DMSO controls consisted of 0.04-1.0% DMSO. After the addition of algae and media, the container was plugged with a bug stopper vented closure cap and mixed thoroughly. Absorbance is measured immediately for Day 0 analysis. Afterward, absorbance was measured every 1-2 days with a cuvette (1 mL volume) on the Thermo Scientific Genesys 10S V is Spectrophotometer (ThermoFisher, San Jose) at 680 nm.
Batch cultures were also repeated in triplicate and compared to a control culture grown at the same time. Algae were harvested and lipids were extracted for gravimetric analysis.
Cultures were harvested at day 6 in stationary phase. Cultures were pelleted, lyophilized, and extracted side-by-side. The experiment was performed in triplicate.
The nonpolar algal extracts were harvested from 500 mL cultures when indicated on growth curves, a minimum of 3 days into stationary phase. […] Cells were crushed and nonpolar lipids were extracted by sonication (Fisher Scientific Model 120 Sonic Dismembrator, ThermoFisher, San Jose) for 1 minute in chloroform, followed by chloroform-methanol extractions, washed with PBS butter, and dried under vacuum.^55-60 The crude non-polar algae extracts were then analyzed by ^1H Nuclear Magnetic Resonance (^1H NMR) for verification of TAG presence and examination of the purity of the extract (determination of level of chlorophyll).
Cell density was monitored by measuring absorbance at 680 nm every 1-2 days.
500-mL cultures were harvested 6 days into stationary phase based on absorbance values. Cells were concentrated by centrifugation and lyophilization to remove water. Nonpolar lipids were extracted by sonication and solvent (chloroform-methanol and PBS buffer). […] Changes in lipid levels for batch cultures were determined by crude lipid extract mass.

[5] = DPPH free radical scavenging activity; cited from earlier work
[6] = target: T1, CDC25 phosphatase 25C-cat (Homo sapiens, UniProt P30307); conditions: cited from earlier work
T1 construct: 25C-cat
T1 sequence (P30307 321-428 limits assumed): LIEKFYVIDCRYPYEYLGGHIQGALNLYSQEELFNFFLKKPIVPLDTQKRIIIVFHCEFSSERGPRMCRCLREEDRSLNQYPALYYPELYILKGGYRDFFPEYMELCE

CDC25 phosphatase 25C = CDC25 phosphatase 25C (Homo sapiens, UniProt P30307); conditions: cited from earlier work
CDC25 phosphatase 25C, sequence (P30307 whole entry): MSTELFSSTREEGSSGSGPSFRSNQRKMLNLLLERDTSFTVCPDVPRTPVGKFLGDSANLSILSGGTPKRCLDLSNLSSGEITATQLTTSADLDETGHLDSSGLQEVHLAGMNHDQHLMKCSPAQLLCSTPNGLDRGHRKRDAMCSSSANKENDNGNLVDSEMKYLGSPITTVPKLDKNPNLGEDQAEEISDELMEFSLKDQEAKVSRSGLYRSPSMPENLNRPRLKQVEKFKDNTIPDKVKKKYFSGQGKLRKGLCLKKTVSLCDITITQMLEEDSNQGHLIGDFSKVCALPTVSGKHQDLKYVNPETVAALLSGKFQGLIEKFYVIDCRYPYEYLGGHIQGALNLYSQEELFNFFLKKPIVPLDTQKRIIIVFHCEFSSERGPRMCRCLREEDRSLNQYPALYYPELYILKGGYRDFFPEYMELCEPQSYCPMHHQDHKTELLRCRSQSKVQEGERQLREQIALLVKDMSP

CDC25 phosphatase 25A = CDC25 phosphatase 25A (Homo sapiens, UniProt P30304); conditions: cited from earlier work
CDC25 phosphatase 25A, sequence (P30304 whole entry): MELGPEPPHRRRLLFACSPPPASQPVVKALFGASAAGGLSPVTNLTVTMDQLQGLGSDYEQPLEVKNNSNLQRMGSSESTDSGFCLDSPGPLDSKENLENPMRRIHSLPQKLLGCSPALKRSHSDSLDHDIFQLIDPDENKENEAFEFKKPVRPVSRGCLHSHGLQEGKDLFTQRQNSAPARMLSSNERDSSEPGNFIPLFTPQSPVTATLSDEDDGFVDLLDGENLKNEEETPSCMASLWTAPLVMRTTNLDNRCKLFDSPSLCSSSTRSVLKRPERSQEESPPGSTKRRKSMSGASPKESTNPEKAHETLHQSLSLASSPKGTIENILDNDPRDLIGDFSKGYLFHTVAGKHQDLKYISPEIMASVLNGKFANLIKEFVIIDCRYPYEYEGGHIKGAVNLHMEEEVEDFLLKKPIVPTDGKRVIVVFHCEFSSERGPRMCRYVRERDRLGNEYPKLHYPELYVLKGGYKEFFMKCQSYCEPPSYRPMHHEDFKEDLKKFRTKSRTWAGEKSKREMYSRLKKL

protein phosphatase 2A = protein phosphatase 2A (Homo sapiens, UniProt P67775); conditions: cited from earlier work
protein phosphatase 2A, sequence (P67775 whole entry): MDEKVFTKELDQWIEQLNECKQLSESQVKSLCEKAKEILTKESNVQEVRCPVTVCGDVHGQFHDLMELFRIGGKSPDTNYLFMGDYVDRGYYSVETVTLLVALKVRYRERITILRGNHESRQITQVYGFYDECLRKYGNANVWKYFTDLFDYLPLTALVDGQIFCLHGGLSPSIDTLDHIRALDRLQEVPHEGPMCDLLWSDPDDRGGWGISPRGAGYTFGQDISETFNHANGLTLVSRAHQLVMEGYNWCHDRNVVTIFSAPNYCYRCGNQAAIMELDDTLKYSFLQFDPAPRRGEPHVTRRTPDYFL

Nannochloropsis oculata = conditions: 55.2-165.6 nM
Protocol: as §1, §2, §3, §4, §5

arachidonate 15-LO = arachidonate 15-LO (Homo sapiens, UniProt P16050); conditions: cited from earlier work
arachidonate 15-LO, sequence (P16050 whole entry): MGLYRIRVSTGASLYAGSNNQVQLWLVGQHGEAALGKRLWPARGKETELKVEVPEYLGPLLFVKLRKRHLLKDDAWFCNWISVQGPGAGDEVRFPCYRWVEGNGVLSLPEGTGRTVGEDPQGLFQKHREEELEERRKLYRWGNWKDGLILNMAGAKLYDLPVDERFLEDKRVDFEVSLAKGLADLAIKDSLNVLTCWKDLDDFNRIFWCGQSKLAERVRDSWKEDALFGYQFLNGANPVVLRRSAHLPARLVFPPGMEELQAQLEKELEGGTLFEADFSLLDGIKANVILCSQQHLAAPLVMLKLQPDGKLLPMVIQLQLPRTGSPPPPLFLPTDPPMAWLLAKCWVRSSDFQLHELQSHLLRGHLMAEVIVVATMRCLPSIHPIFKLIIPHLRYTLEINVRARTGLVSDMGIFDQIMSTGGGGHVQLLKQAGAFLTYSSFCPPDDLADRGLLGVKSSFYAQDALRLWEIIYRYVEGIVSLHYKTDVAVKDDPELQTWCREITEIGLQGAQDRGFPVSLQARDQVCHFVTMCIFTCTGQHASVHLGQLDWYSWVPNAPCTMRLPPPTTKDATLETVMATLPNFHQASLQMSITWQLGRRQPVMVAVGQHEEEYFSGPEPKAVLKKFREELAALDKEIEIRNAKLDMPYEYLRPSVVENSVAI

Nannochloropsis sp. = test: Microplate assay: increase of lipid production (Table 17); assay type: cell-based; conditions: best conc. 2.4 nM
From the text: We also tested a collection with more antioxidants, kinase inhibitors, and further compounds for increase of lipid production with N. salina, P. tricornutum, N. oculata, and Nannochloropsis sp.

[7] = 200 nM, initial microplate screen, relative to control

## CC1=CC(=O)CC(C)(C)[C@@]1(O)/C=C/C(C)=C\C(=O)O [Abscisic acid, (2Z,4E)-5-[(1S)-1-hydroxy-2,6,6-trimethyl-4-oxocyclohex-2-en-1-yl]-3-methylpenta-2,4-dienoic acid]
[1]
  agonist of antioxidant response element at: element at 37.6 μM)
[2]; [7]
  Absorbance (percent increase): −1.2%
  Nile Red percent increase: 87.0%
[2]; P. tricornutum, compounds tested at 200 nM, initial screening, p<0.05
  Nile Red Fluorescence % Increase: 87.0%
Nannochloris sp.
  Absorbance (percent increase): −2.6%
  Nile Red percent increase: 61.6%
Nannochloris sp.; compounds tested at 200 nM
  Nile Red Fluorescence % Increase: 90.8%
Nannochloropsis salina [3]; N. salina, compounds tested at 20 μM, initial screening, p<0.05
  Nile Red Fluorescence % Increase: 34.5%

## CCNc1cc(N[C@H]2CC[C@H](O)CC2)nc(Nc2ccc3c(ccn3Cc3ccccc3)c2)n1 [CDK4/6 Inhibitor 4, trans-4-((6-(ethylamino)-2-((1-(phenylmethyl)-1H-indol-5-yl)amino)-4-pyrimidinyl)amino)-cyclohexanol]
CDK6
  IC50: 5.6 µM
[2]; P. tricornutum, 10 μM, DMSO delivery, added t=day 0
  % Increase based on Nile Red Fluorescence Intensity: 50%

## 2-tert-Butyl-4-hydroxyanisole and 3-tert-butyl-4-hydroxyanisole (mixture) [BHA]
Nannochloropsis salina [4]; batch cultures
  increase in lipid levels: 63%
Nannochloropsis salina [4]; N. salina, 500 mL culture
  Lipid productivity: 8.1 ± 0.6 mgL^−1day^−1
Nannochloropsis salina [4]; N. salina, 500 mL culture, dried lipid extract per dry biomass
  Lipid content: 28.8 ± 11.4 % w/w
Nannochloropsis salina [4]; N. salina, 500 mL culture, gravimetric, relative to averaged control without DMSO
  Change in Lipids: 63%
Nannochloropsis salina [4]; N. salina, 500 mL culture, mid-exponential growth phase
  Specific Growth Rate: 0.23 ± 0.002 day⁻¹
[5]
  IC50: 43 µM
Nannochloropsis salina [3]; increase of lipid production, N. salina, best conc. 10 nM
  % Inc: 290.14%

## 6-Chloro-7-(2-morpholin-4-yl-ethylamino)-quinoline-5,8-dione [CDC25 Phosphatase Inhibitor I]
[6]
  IC50: 4.6 µM
CDC25 phosphatase 25C
  IC50: 5.4 µM
CDC25 phosphatase 25A
  IC50: 2.4 µM

## CC12C(=O)OC(=O)C1(C)C1CCC2O1 (stereo not shown) [Cantharidin, 2,6-Dimethyl-4,10-dioxatricyclo-[5.2.1.0^2,6]decane-3,5-dione]
Protein phosphatase 2A
  IC50: 0.04 µM
[2]; 0.0252-0.0757 nM
  % increase (lipid production): 9-35%
[2]; 0.0252-165.6 nM (H2O)
  % increase (lipid production): 0.17-168.19%
Nannochloris sp.
  Absorbance (percent increase): −6.5%
  Nile Red percent increase: 64.5%
Nannochloris sp.; compounds tested at 20 μM
  Nile Red Fluorescence % Increase: 22.9%
Nannochloropsis salina [3]; 0.0252-0.681 nM
  % increase (lipid production): 1-15%
Nannochloropsis salina [3]; 0.0252-165 nM (H2O)
  % increase (lipid production): 7-87%
Nannochloropsis oculata
  % increase (lipid production): 11-54%

## CC(=O)Nc1ccc(O)cc1 [Acetaminophen, N-(4-hydroxyphenyl)ethanamide]
Arachidonate 15-LO
  IC50: 28.4 µM
Nannochloris sp.
  Absorbance (percent increase): −6.7%
  Nile Red percent increase: 68.9%
Nannochloris sp.; compounds tested at 20 μM
  Nile Red Fluorescence % Increase: 89.7%
Nannochloropsis sp.
  % Inc: 13.11%

From patent publication US8778643B2, “Methods for increasing lipid levels and producing triacylglycerols in algae” (priority 2012, dated 2014)
